“Also recorded” adds a separate entry of the source. Where two headings read alike, the source gives them in different places. Blank lines part the entries; values can stand above or below the compound they belong to.
Key:
[1] = target: T1, OMA1 protease (OPA1 cleavage) (Homo sapiens, UniProt Q96E52); assay: OPA1 cleavage / OMA1 activation in 293T cells by OPA1 Western blotting; format: cell-based; conditions: for critical CCCP concentration (threshold-level) for L-OPA1 cleavage after preincubation with compound: 30 μM compound for 60 minutes; for OPA1 cleavage by compound alone, 100 μM: 100 μM (up to 100 μM for VI); for OPA1 cleavage with compound plus 1 μM CCCP: 60 minutes compound (30 μM MMP2/9 inhibitor IV, 300 μM temozolomide, 100 μM amoxapine), then 1 μM CCCP for 30 minutes
T1 construct: endogenous in cells; host or cells: 293T cells
T1 sequence (Q96E52 144-524): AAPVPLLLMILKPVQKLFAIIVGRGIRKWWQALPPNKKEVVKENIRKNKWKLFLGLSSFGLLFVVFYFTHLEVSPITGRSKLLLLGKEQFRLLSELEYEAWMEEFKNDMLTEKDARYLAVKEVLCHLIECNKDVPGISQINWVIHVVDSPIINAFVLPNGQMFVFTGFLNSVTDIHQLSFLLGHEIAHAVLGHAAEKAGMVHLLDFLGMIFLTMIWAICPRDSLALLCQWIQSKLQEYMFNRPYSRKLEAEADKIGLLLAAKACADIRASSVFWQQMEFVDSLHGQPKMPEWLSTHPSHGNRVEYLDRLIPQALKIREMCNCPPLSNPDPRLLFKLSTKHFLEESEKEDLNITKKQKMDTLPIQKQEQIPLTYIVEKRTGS
Protocol: FIG. 6. A: 293T cells were treated with 0 μM, 1 μM, 2 μM, 3 μM, 4 μM, or 5 μM CCCP for 30 minutes after which OPA1 was analyzed by Western blotting. […] E: OPA1 cleavage in Neuro2A cells treated with 30 μM of the indicated agents for 90 minutes (60 min preincubation plus 30 min of CCCP).
FIG. 7. Compounds of present invention can lower CCCP-levels for OMA1 activation gauged by OPA1 cleavage in Western blots. A-C: 293T cells were treated with the denoted concentrations of compound VII, IV and V for 60 minutes before CCCP was added for an additional 30 minutes. D-E: 293T cells were treated with the denoted concentrations of compound VII, IV and V for 6 hours before CCCP was added for an additional 30 minutes.
FIG. 11. A: A likely binding pose of a compound of present invention illustrates aspects of the drug-target interaction. B: 293T cells were treated with the denoted concentrations of compound for 90 minutes before cells were harvested and analyzed by OPA1 Western blotting. C: 293T cells were treated with the denoted concentrations of compound VI for 60 minutes and another 30 minutes with 1 μM CCCP before cells were harvested and analyzed by OPA1 Western blotting.
(§1) A nonlimiting example of a method of testing compounds for their efficacy to induce OPA1-cleavage and/or OMA1 activation is provided in FIG. 1, for which human 293T cells or mouse Neuro2A cells were treated with different agents and subsequently tested for OPA1-hydrolysis by Western blotting. […] OPA1 cleavage in these experiments is OMA1 dependent, because knock-down of the protease preserved L-OPA1 (FIG. 1B & 1C).
A nonlimiting example illustrates specific features of certain compounds disclosed herein and teaches how potency of such compounds can be further improved. To this end, compound were analyzed for their potential to lower threshold-levels for OPA1 cleavage and/or OMA1 activation using the methods described in Example 3. In one example, L-OPA1 was cleaved in untreated 293T cells at concentrations ≥5 μM CCCP (FIG. 6A, top panel). […] Preincubation with 30 μM MMP2 inhibitor II (CAS #869577-51-5) lowered the threshold-level even further to about 1 μM CCCP (FIG. 6C, bottom panel). The skilled artisan can recognize how (and the not-so-skilled artisan certainly appreciates that) substitutions and modifications of the thiirane-opposed end of the molecule increased potency.

[2] = system: mitochondrial membrane potential Δψ; assay: TMRE live-cell assay in 293T cells; conditions: for impact on mitochondrial membrane potential Δψ (TMRE signal): overnight (18 hours), different compound concentrations
Protocol: (§2) The mitochondrial inner membrane potential Δψ was measured with a cellular TMRE-assay, in which a reduction of Δψ results in a reduced TMRE signal (see insert in A). […] A: Vehicle only. […] D: compound VII. E: compound IV. F: compound V.
(§3) It is well established in the art that CCCP can lower the mitochondrial membrane potential Δψ. […] 293T cells were cultured overnight with different compound concentrations after which TMRE fluorescence was measured with a fluorescence plate-reader (FIG. 10).

OMA1 = target: T2, OMA1 (Homo sapiens, UniProt Q96E52); assay: Luciferase-based cellular reporter of enzymatic OMA1 activity in 293T cells; format: cell-based; conditions: 293T reporter cells; for OMA1 activation without stress-stimulus at 40 μM: overnight, no CCCP or valinomycin
T2 construct: 293T cells stably transfected with the reporter enzyme were incubated with increasing concentrations of a compound and 30 nM valinomycin; endogenous in cells; host or cells: 293T cells stably transfected with a luciferase-based reporter enzyme (only the reporter is transfected, not OMA1)
T2 sequence (Q96E52 144-524): T1 sequence (Q96E52 144-524)
Protocol: FIG. 8. 293T cells expressing a luciferase-based cellular reporter were incubated for 1 hour with increasing concentrations of the denoted compounds in cell culture media with 30 nM valinomycin before luciferase substrate was added and light emission measured. OMA1 activity decreases the light signal of the reporter in this assay. A: Vehicle only. […] C: amoxapine. D: compound VII. E: compound IV. F: compound V.
FIG. 9. 293T cells expressing a luciferase-based cellular reporter were incubated overnight with increasing concentrations of the denoted compounds. Luciferase substrate was added the next day and light emission measured. A: Vehicle only. […] C: amoxapine. D: compound VII. E: compound IV. F: compound V.
The following non-limiting examples illustrate some aspects of the mechanism of action of the compounds disclosed herein. An alternative method of measuring enzymatic OMA1 activity makes use of a luciferase-based cellular reporter, which can be transiently or stably expressed in eukaryotic cells. In this assay, OMA1 cleaves the reporter enzyme upon activation and thereby obliterates the luciferase signal. 293T cells stably transfected with the reporter enzyme were incubated with increasing concentrations of a compound and 30 nM valinomycin. Valinomycin is known in the art to induce OPA1 cleavage (see, for example, Head B., et al. “Inducible proteolytic inactivation of OPA1 mediated by the OMA1 protease in mammalian cells.” J Cell Biol. 2009; 187(7):959-66, as well as FIG. 1E). […] This specific example illustrates how compounds of present invention can activate OMA1 under conditions that would otherwise not lead to OMA1 activation. This example also provides an independent validation of the results obtained by Western blotting.
Incubation time is a variable of OMA1 activation for certain compounds (see, for example, sorafenib in FIG. 1E). To investigate whether compounds of present disclosure would activate OMA1 in the absence of a stress-stimulus such as CCCP or valinomycin, reporter cells were incubated with increasing compound concentrations overnight (FIG. 9). […]

[3] = target: T3, OMA1 protease (OPA1 cleavage) (Mus musculus, UniProt Q9D8H7); assay: OPA1 cleavage in Neuro2A cells by OPA1 Western blotting; format: cell-based; conditions: 100 μM sorafenib; for OPA1 cleavage after 30 minutes: 5 μM CCCP, 1 μM valinomycin; for OPA1 cleavage after 3 hours: 100 μM trichostatin A
T3 construct: endogenous in cells; host or cells: Neuro2A cells
T3 sequence (Q9D8H7 140-521): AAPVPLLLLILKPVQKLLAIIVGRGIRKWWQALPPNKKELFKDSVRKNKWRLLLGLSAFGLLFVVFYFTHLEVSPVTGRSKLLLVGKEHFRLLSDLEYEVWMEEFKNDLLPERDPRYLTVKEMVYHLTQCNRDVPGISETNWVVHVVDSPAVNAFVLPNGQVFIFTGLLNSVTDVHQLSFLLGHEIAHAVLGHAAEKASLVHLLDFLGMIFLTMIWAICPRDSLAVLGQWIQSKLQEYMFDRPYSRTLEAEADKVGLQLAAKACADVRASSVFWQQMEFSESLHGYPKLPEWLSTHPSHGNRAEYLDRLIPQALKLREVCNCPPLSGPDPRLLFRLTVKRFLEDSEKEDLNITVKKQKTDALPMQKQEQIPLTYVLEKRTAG
Text: FIG. 1. A: The YME1L1 protease regulates the OPA1 ratios under physiological conditions (a). The OMA1 protease converts all OPA1 isoforms to S-OPA1 under conditions broadly defined as stress conditions (b). […] OMA1 knock-down could prevent OPA1 hydrolyses in these experiments. C: Quantification of OMA1 protein levels in Western blots upon OMA1 knock-down (mean±S.D.; p≤0.05; n=3). D: Different chemicals and combinations of chemicals altered the OPA1 ratios in 293T cells. E: Neuro2A cells were treated with the indicated agents for 30 minutes or 3 hours, respectively.
as §1
Another example is provided in FIG. 1E, for which Neuro2A cells were treated with different reagents for 30 minutes or 3 hours prior to the assessment of OPA1 by Western blotting. Some compounds acted faster while others were slower in altering the OPA1 ratios. […] Trichostatin A had no effect even after 3 hours of treatment. […] In certain embodiments, a pharmaceutical composition comprising an effective amount of sorafenib or a derivate, a prodrug or a pharmaceutical acceptable salt thereof and an effective amount of temozolomide or a derivate, a prodrug or a pharmaceutical acceptable salt thereof is administered to a subject with cancer.

[4] = system: mitochondrial membrane potential Δψ
Protocol: as §2, §3

[5] = 293T cells, then CCCP for another 30 minutes
[6] = cells treated 60 minutes with compound, then CCCP for another 30 minutes
[7] = 293T cells, pre-incubation of 6 hours before CCCP for an additional 30 minutes
[8] = 293T cells, 90 minutes, absence of CCCP

SMILES: C=CCSc1ccc2c(c1)C(N1CCNCC1)=Nc1ccccc1O2 [VII]
OMA1 activation without stress-stimulus at 40 μM (OMA1): OMA1 activation was noted | OPA1 cleavage at the tested concentrations after extended pre-incubation [1, 7]: did result in OPA1 cleavage | effective dose (OPA1 cleavage) [1, 6]: about 10 μM | increase of potency compared to amoxapine ([1]; from effective doses in 293T cells): about 3 fold | impact on mitochondrial membrane potential Δψ (TMRE signal) [2]: only little impact on Δψ

SMILES: CNC(=O)c1cc(Oc2ccc(NC(=O)Nc3ccc(Cl)c(C(F)(F)F)c3)cc2)ccn1 [sorafenib]
OPA1 cleavage after 30 minutes [3]: only little effect | OPA1 cleavage after 3 hours [3]: L-OPA1 was completely converted

SMILES: CC(C)[C@@H]1NC(=O)[C@H](C)OC(=O)[C@@H](C(C)C)NC(=O)[C@@H](C(C)C)OC(=O)[C@H](C(C)C)NC(=O)[C@H](C)OC(=O)[C@@H](C(C)C)NC(=O)[C@@H](C(C)C)OC(=O)[C@H](C(C)C)NC(=O)[C@H](C)OC(=O)[C@@H](C(C)C)NC(=O)[C@@H](C(C)C)OC1=O [valinomycin]
effect of 30 nM valinomycin alone on reporter signal (OMA1; 1 hour, 30 nM valinomycin, vehicle only): only little effects | OPA1 cleavage after 30 minutes [3]: enough to induce OPA1 cleavage

SMILES: N#CC(C#N)=NNc1cccc(Cl)c1 [CCCP]
OPA1 cleavage by 1 μM CCCP alone ([1]; 293T cells, 1 μM CCCP, 30 minutes): did not induce OPA1 cleavage | L-OPA1 cleavage by 10 μM CCCP ([1]; 293T cells, 10 μM CCCP, 30 minutes): resulted in L-OPA1 cleavage | CCCP concentration at which L-OPA1 was cleaved ([1]; untreated 293T cells, CCCP 30 minutes): ≥ 5 µM | OPA1 cleavage after 30 minutes [3]: enough to induce OPA1 cleavage | TMRE signal with 0.6 μM CCCP ([2]; 0.6 μM CCCP): significantly reduced the TMRE signal

SMILES: O=C1Nc2ccccc2Oc2ccc(S(=O)(=O)CC3CS3)cc21 (stereo not drawn) [Compound VI]
conversion of L-OPA1 isoforms at 300 nM ([1]; 293T cells, 300 nM compound, presence of 1 μM CCCP): fully convert all L-OPA1 isoforms | OPA1 cleavage by compound alone, 100 μM [1, 8]: did not induce OPA1 cleavage | effective dose (OPA1 cleavage) ([1]; 293T cells, 60 minutes compound, another 30 minutes with 1 μM CCCP): 300 nM | effective dose better than compound IV ([1]; 293T cells, with CCCP): 10 times | more potent in inducing OPA1 hydrolysis than MMP2/9 inhibitor IV or amoxapine ([1]; 293T cells, with CCCP): 100 times

SMILES: CC(/C=C/C(=O)NO)=C\[C@@H](C)C(=O)c1ccc(N(C)C)cc1 [Trichostatin A, trichostatin A]
OPA1 cleavage after 3 hours [3]: no effect

SMILES: O=S(=O)(CC1CS1)c1ccc(Oc2ccccc2)cc1 (stereo not drawn) [MMP2/9 inhibitor IV]
critical CCCP concentration (threshold-level) for L-OPA1 cleavage after preincubation with compound [1, 5]: about 2 μM | OPA1 cleavage by compound alone, 30 μM ([1]; 293T cells, 30 μM, 90 minutes, absence of CCCP): did not induce OPA1 cleavage | OPA1 cleavage by compound alone, 100 μM [1, 8]: no effects on L-OPA1 | OPA1 cleavage with compound plus 1 μM CCCP ([1]; 293T cells): led to OPA1 cleavage | impact on mitochondrial membrane potential Δψ (TMRE signal) [4]: only little impact on Δψ

Continued, in another order:

critical CCCP concentration (threshold-level) for L-OPA1 cleavage after preincubation with compound [1, 5]: about 1 μM | effective dose (OPA1 cleavage) [1, 6]: about 30 μM
SMILES: CS(=O)(=O)Nc1ccc(Oc2ccc(S(=O)(=O)CC3CO3)cc2)cc1 (stereo not drawn) [MMP2 inhibitor II]

OPA1 cleavage at the tested concentrations after extended pre-incubation [1, 7]: did result in OPA1 cleavage | potency (effective dose) after extended pre-incubation [1, 7]: about 1 μM | impact on mitochondrial membrane potential Δψ (TMRE signal) [2]: only little impact on Δψ
SMILES: O=C1Nc2ccccc2Oc2ccc(S(=O)(=O)CC3CO3)cc21 (stereo not drawn) [Compound V]
efficacy in OPA1 cleavage in the presence of CCCP ([1]; 293T cells, 60 minutes compound, then CCCP 30 minutes): some efficacy; also recorded: overall little activity

impact on mitochondrial membrane potential Δψ (TMRE signal) [2]: only little impact on Δψ
SMILES: C=CCSc1ccc2c(c1)C(=O)Nc1ccccc1O2 [IV, 2-(allylthio)dibenzo[b,f][1,4]oxazepin-11(10H)-one]

OMA1 activation without stress-stimulus at 40 μM (OMA1): OMA1 activation was noted | OPA1 cleavage with compound plus 1 μM CCCP ([1]; 293T cells): OPA1 cleavage was observed | impact on mitochondrial membrane potential Δψ (TMRE signal) [2]: only little impact on Δψ
SMILES: Clc1ccc2c(c1)C(N1CCNCC1)=Nc1ccccc1O2 [amoxapine]
OPA1 cleavage by compound alone, 100 μM [1, 8]: no effect on OPA1 cleavage; also recorded: no perceptible effects

From patent US12466819B2, “Tricyclic compounds with OMA1/OPA1 modulatory properties” (712 North Inc., priority 2019, dated 2025)
